# Reference: patent publication US20080269346A1, “B-Blocker Pharmacogenetics in Heart Failure” (University of Florida Research Foundation, Inc., priority 2005, published 2008)
# Legend:
# heart failure patients [1] = conditions: concomitant drug in patients on metoprolol CR/XL; linear regression on final EF
# Description: Patients were recruited for this prospective study from the University of Florida and University of North Carolina Heart Failure Clinics. All clinicians involved in clinical decision making were blinded to the genotypic data and all investigators determining the genotypes were blinded to the patient's clinical course. The study was approved by the Institutional Review Board at each institution, and each patient gave written informed consent for participation in the study. The procedures followed were in accordance with institutional guidelines. The study population included patients aged ≧18 years with symptoms of heart failure in NYHA functional class II-III, and with an EF≦40%. […] Patients were not eligible for enrollment if they were receiving β-blocker therapy.
# After obtaining informed consent, a 5-mL blood sample for isolation of genomic DNA was collected. […] Left ventricular dimensions at the mid-cavity or chordal level were measured from digitized end diastolic and end systolic parasternal long axis images of the left ventricle.
# Patients were divided by genotype and compared for continuous parameters (e.g., LVEF, LVEDD) at baseline as well as changes in these parameters. Comparisons were made by unpaired t-test, ANOVA, Kruskal Wallis test, or Wilcoxon rank sum as appropriate. […]
# heart failure patients [2] = experiment: Heart failure study: ejection fraction and heart rate response by ADRA2C Ins/Del and ADRB1 Arg389Gly genotype; assay type: in vivo, human; conditions: concomitant drug in patients on metoprolol CR/XL
# Procedure: Inclusion criteria were age >18 years, NYHA functional class II-III, EF <40% and angiotensin-converting enzyme (ACE) inhibitor or angiotensin receptor blocker treatment on a stable dose for a minimum of four weeks. Patients receiving β-blocker therapy were not eligible.
# At baseline, ejection fraction (EF), LV end-diastolic diameter (LVEDD) and LV endsystolic diameter (LVESD) were determined by a two-dimensional (2D) quantitative echocardiogram. Echocardiograms were analyzed by a single experienced echo-cardiologist. This individual had no knowledge of the clinical course or the genotyping results. […] The starting dose for patients in NYHA class II was 25 mg/day. […] Based on α of 0.05 and 80% power, at least 20 patients per genotype group (Ins/Ins or Del Carrier) were required to detect a difference of 6 EF units. […] Therefore, univariate linear regression models were used to predict end of study EF, LVEDD, or LVESD with the Ins/Del variable. […] The multivariate linear regressions included also variables that were significant in the univariate models. Three different step-type selection methods (backward elimination, forward elimination, and minimum R^2 improvement) were used to determine the best-fitting regression model from the maximum model. Model entry was set at P<0.1 and variables with P<0.05 stayed for the next step. […]
# [3] = test system: patients with heart failure; conditions: Metra et al. 2000; cited from earlier work
# [4] = S-metoprolol plasma concentrations in heart failure patients on metoprolol CR/XL; assay type: in vivo, human; conditions: final metoprolol CR/XL dose, about 2 to 4 hours after dosing
# Procedure: After obtaining informed consent, a 5-mL blood sample for isolation of genomic DNA was collected. Baseline evaluations included a two-dimensional (2D) quantitative echocardiogram for determination of measures such as ejection fraction (EF}, left ventricular end-diastolic diameter (LVEDD), LV end-systolic diameter (LVESD), and completion of a 6-minute walk test. After completion of baseline studies, patients began metoprolol CR/XL. The starting dose of metoprolol CR/XL was 12.5 mg/day for patients in NYHA class III and 25 mg/day for patients in NYHA class II. The dose was doubled on a biweekly basis to 200 mg/day or maximum tolerated dose. Thus, the time for the up-titration period was 8-10 weeks depending on the starting dose of metoprolol CR/XL. Patients underwent a follow-up echocardiogram three months after the attainment of completion of up-titration or attainment of the maximum metoprolol CR/XL dose. Thus, at the time of the follow-up echocardiogram, patients had been receiving metoprolol CR/XL for approximately 5-5.5 months. In a subset of 42 patients who consented to additional blood draws, a pharmacokinetic blood sample was obtained approximately 2 to 4 hours following dosing after two weeks on each metoprolol CR/XL dose for determination of S-metoprolol (active isomer) concentrations.
# [5] = test system: hypertensive men and women; experiment: Hypertension study: 24-hour ambulatory blood pressure response to metoprolol by ADRA2C Ins/Del genotype
# Procedure: In the hypertension study, 40 hypertensive men and women aged 35 to 65 years were studied. Hypertension was defined as untreated DBP between 95 mm Hg and 115 mm Hg (2 clinic visits, ≧5 minutes sitting). A certain range for systolic blood pressure (SBP) was not required for study entry. […] Medications for other indications were only allowed if it could not conceivably affect BP.
# Patients took 50 mg metoprolol every 12 hours and BP was measured every week at the same time of the day to minimize the impact of diurnal BP variation. To achieve the goal DBP <90 mm Hg, the dose could be increased weekly to 100 mg and the maximum of 200 mg every 12 hours. Doses were not increased if the patient had intolerable side effects.
# After the treatment phase, 24-hour ABP monitoring was repeated and blood samples for a pharmacokinetic analysis were taken.
# Thus, univariate linear regression was used to model the DBP responses (24-hour, daytime) with the Ins/Del variable. […] This model would also include other, in the univariate model significant variables (P<0.1 for entry).
structure (smiles),measurement,setting,value
"NS(=O)(=O)c1cc(C(=O)O)c(NCc2ccco2)cc1Cl [Furosemide, furosemide]","Parameter Estimate for use of the drug, multivariate analysis of change in Ejection Fraction",heart failure patients [1],8.22 ejection fraction units
"CC(=O)S[C@@H]1CC2=CC(=O)CC[C@]2(C)[C@H]2CC[C@@]3(C)[C@@H](CC[C@@]34CCC(=O)O4)[C@H]12 [Spironolactone, spironolactone]","Parameter Estimate for use of the drug, multivariate analysis of change in Ejection Fraction",heart failure patients [1],6.19 ejection fraction units
same,"Parameter estimate for use of the drug, multiple regression of treatment ejection fraction",heart failure patients [2],4.37
COc1ccccc1OCCNCC(O)COc1cccc2[nH]c3ccccc3c12 (stereo not shown) [carvedilol],95% confidence intervals for the change in LVEF,[3],−11.1 to +32.9
COCCc1ccc(OCC(O)CNC(C)C)cc1.COCCc1ccc(OCC(O)CNC(C)C)cc1.O=C(O)CCC(=O)O (stereo not shown) [metoprolol CR/XL],"S-metoprolol plasma concentrations, median (interquartile range)",[4]; Arg389 homozygotes,31 ng/mL
same,"S-metoprolol plasma concentrations, median (interquartile range)",[4]; Gly 389 carriers,19 ng/mL
COCCc1ccc(OCC(O)CNC(C)C)cc1 (stereo not shown) [metoprolol],24-hour SBP change,[5]; Del carrier,−8.3±21.6
same,daytime SBP change,[5]; Del carrier,−9.4±21.7
same,nighttime SBP change,[5]; Del carrier,−4.7±22.2
same,Nighttime DBP change,[5]; Del carriers,3.7±9.7 mm Hg
same,24-hour SBP change,[5]; Ins/Ins,−8.8±16.4 mm Hg
same,Nighttime DBP change,[5]; Ins/Ins,−8.0±8.8 mm Hg
same,daytime SBP change,[5]; Ins/Ins,−9.5±16.6 mm Hg
same,nighttime SBP change,[5]; Ins/Ins,−7.0±18.1 mm Hg
same,adverse effects,[5]; all 40 hypertension patients,minor
same,95% confidence intervals for the change in LVEF,[3],−8.2 to +22.6
